According to patent publication US8101596B2, “Loxapine analogs and methods of use thereof” (Hypnion Inc., priority 2004, dated 2012):

Legend:
male Wistar rats = assay: Sleep-wakefulness monitoring (SCORE-2000) in rats; format: in vivo, rat; settings: CT-18
Protocol: Food and water were available ad libitum.
Treatments were administered orally as a bolus.
A parallel group study design was employed.

[1] = system: monkey cryopreserved hepatocytes; assay: Metabolism in monkey cryopreserved hepatocytes; format: in vitro ADME; settings: primate hepatocytes, 1 μM, in % (unit assumed)
Protocol: (§1) Metabolism of test articles in monkey and human cryopreserved hepatocytes was assayed as follows:
(§2) Sample is diluted with DMSO, to prepare 100 μM and 10 μM stocks. 0.1% formic acid in acetonitrile is prepared by the addition of 1 mL formic acid per 1 L acetonitrile (store RT for 3 months). 10 minute, 60 and 120 minute 96 well quenching plates are prepared with 150 μL acetonitrile+0.1% formic acid in each well. Store on ice or refrigerated.
(§3) Next, hepatocytes are thawed and 100 μL of cell suspension is placed into a microfuge tube with 100 μL 0.4% Trypan Blue solution and gently mix by inversion. A small amount of the stained cell suspension (approximately 15 μL) is placed into a clean hemacytometer with a coverslip. The hemacytometer is placed onto the stage of the microscope and the focus and power are adjusted until a single counting square fills the field. The number of cells in the four outside corner subdivided squares of the hemacytometer are counted. Viable cells are opalescent, round, and pale with a darker outline. Non-viable cells are dark, opaque blue.
(§4) 198 μL of hepatocytes are transferred to relevant wells on dosing plate.
(§5) Plates are preincubated for at least 15 min. Reactions are started 2 μL of appropriate test compound dilution from dosing plate. […]

[2] = system: human cryopreserved hepatocytes; assay: Metabolism in human cryopreserved hepatocytes; format: in vitro ADME; settings: 1 μM, in % (unit assumed)
Protocol: as §1, §2, §3, §4, §5

[3] = biological target: T1, human recombinant M1 expressed in CHO cells (Homo sapiens, UniProt P11229); assay: M1 muscarinic receptor binding assay
T1 construct: purchased PerkinElmer, Inc., Wellesley, Mass; host or cells: CHO cells
T1 sequence (P11229 1-460): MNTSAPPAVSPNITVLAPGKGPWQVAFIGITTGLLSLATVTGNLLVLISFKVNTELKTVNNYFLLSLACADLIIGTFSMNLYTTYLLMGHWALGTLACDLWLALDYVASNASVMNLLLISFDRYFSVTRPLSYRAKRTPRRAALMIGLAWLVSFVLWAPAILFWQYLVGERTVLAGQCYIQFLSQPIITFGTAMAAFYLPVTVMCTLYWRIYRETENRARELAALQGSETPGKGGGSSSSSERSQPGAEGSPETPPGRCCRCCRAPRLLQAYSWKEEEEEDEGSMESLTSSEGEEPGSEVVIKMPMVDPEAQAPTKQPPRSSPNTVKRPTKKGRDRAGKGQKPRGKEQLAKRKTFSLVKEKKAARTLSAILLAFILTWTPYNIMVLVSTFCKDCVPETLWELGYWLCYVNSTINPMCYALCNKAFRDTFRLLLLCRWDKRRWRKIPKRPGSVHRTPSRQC

[4] = biological target: T2, human recombinant M3 expressed in CHO cells (Homo sapiens, UniProt P20309); assay: M3 muscarinic receptor binding assay
T2 construct: purchased PerkinElmer, Inc., Wellesley, Mass; host or cells: CHO cells
T2 sequence (P20309 whole entry): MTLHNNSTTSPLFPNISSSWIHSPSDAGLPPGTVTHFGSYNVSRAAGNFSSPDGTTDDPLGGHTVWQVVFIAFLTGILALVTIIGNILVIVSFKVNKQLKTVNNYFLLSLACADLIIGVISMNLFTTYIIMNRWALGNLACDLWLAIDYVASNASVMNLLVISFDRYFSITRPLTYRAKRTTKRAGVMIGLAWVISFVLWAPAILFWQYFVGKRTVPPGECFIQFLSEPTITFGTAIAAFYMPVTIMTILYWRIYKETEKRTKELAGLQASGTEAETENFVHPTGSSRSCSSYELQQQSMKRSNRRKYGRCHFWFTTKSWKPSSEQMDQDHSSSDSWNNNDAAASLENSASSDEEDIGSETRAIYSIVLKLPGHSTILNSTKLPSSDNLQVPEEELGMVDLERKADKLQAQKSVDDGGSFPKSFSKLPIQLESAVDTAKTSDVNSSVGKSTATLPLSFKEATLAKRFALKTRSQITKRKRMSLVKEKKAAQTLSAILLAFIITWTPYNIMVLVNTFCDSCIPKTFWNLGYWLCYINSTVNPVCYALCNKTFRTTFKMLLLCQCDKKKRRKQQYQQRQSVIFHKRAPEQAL

[5] = biological target: T3, human recombinant M2 expressed in CHO cells (Homo sapiens, UniProt P08172); assay: M2 muscarinic receptor binding assay
T3 construct: purchased PerkinElmer, Inc., Wellesley, Mass; host or cells: CHO cells
T3 sequence (P08172 1-466): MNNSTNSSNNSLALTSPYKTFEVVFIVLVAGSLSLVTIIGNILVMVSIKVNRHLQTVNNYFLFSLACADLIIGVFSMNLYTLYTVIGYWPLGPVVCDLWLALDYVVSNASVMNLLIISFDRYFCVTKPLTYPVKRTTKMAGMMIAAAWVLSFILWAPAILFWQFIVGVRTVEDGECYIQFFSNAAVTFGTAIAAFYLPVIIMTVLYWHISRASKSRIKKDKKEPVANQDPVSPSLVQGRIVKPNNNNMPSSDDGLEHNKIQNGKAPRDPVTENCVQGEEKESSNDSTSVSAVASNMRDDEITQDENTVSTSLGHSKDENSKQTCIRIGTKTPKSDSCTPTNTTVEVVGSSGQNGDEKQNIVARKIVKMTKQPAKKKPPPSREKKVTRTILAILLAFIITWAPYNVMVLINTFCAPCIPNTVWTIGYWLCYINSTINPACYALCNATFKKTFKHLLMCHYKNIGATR

H1 histamine receptor = biological target: T4, H1 histamine receptor (Bos taurus, UniProt P30546); settings: reference compounds; read-out: Ki of reference compounds in H1 binding assay (unit inferred); cited from earlier work
T4 construct: the receptors were obtained from bovine cerebellar membrane tissue; from tissue; host or cells: bovine cerebellar membranes
T4 sequence (P30546 whole entry): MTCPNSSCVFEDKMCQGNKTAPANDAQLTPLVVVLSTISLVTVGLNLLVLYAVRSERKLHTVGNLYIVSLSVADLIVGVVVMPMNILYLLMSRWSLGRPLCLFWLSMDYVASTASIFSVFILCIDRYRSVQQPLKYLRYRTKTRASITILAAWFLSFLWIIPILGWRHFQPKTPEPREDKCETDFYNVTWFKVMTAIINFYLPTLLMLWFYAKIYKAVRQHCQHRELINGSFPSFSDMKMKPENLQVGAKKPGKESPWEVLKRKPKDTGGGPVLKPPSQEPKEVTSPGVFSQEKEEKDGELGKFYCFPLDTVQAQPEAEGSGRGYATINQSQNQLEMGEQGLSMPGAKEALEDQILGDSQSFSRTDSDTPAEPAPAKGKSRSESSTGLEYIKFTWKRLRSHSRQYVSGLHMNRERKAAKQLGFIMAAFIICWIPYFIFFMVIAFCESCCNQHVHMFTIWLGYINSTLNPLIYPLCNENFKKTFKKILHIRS

SMILES | LUSB (longest uninterrupted sleep bout) (male Wistar rats; 10 mg/kg oral) [min] | other results
CC(C)(CN1CCN(C2=Nc3ccccc3Oc3ccccc32)CC1)C(=O)O [Compound 1] | 19.7 ± 6.7 | LUSB (longest uninterrupted sleep bout) (male Wistar rats; 1 mg/kg oral): 6.0 ± 2.3 min; LUSB (longest uninterrupted sleep bout) (male Wistar rats; 3 mg/kg oral): 18.8 ± 3.0 min
CC(C)(CN1CCN(C2=Nc3ccccc3Oc3ccc(Cl)cc32)CC1)C(=O)O [Compound 5] | 8.7 ± 3.3 | remaining 120 minutes after treatment [1]: 75.105; remaining 120 minutes after treatment [2]: 90.405; LUSB (longest uninterrupted sleep bout) (male Wistar rats; 3 mg/kg oral): 13.5 ± 4.0 min
CC(C)(CCN1CCN(C2=Nc3ccccc3Oc3ccc(Cl)cc32)CC1)C(=O)O [Compound 6] |  | Ki [3]: > 10 µM; Ki [4]: > 10 µM; Ki [5]: > 10 µM
CC(C)(CN1CCN(C2=Nc3ccccc3Oc3ccc(Br)cc32)CC1)C(=O)O [Compound 8] | 16.7 ± 3.0 | 
COc1ccc2c(c1)C(N1CCN(CC(C)(C)C(=O)O)CC1)=Nc1ccccc1O2 [Compound 12] | 18.1 ± 2.1 | LUSB (longest uninterrupted sleep bout) (male Wistar rats; 1 mg/kg oral): 7.7 ± 3.2 min; LUSB (longest uninterrupted sleep bout) (male Wistar rats; 3 mg/kg oral): 8.3 ± 3.0 min
CC(C)(CN1CCN(C2=Nc3cc(Br)ccc3Oc3ccccc32)CC1)C(=O)O [Compound 17] | 5.0 ± 2.0 | 
Cc1ccc2c(c1)N=C(N1CCN(CC(C)(C)C(=O)O)CC1)c1ccccc1O2 [Compound 19] | 11.7 ± 4.0 | LUSB (longest uninterrupted sleep bout) (male Wistar rats; 3 mg/kg oral): 18.6 ± 3.3 min
Cc1ccc2c(c1)N=C(N1CCN(CC(C)(C)C(=O)O)CC1)c1cc(C)ccc1O2 [Compound 20] | 4.7 ± 2.3 | 
CC(C)(CN1CCN(C2=Nc3ccccc3Oc3ccccc32)CC1)C(=O)NS(C)(=O)=O [Compound 40] | 7.6 ± 4.2 | LUSB (longest uninterrupted sleep bout) (male Wistar rats; 30 mg/kg oral): 16.4 ± 2.9 min
COc1ccc2c(c1)N=C(N1CCN(CC(C)(C)C(=O)O)CC1)c1ccc(OC)cc1O2 [Compound 42] | 4.8 ± 2.7 | 
Cc1ccc2c(c1)Oc1ccccc1N=C2N1CCN(CC(C)(C)C(=O)O)CC1 [Compound 46] | 11.1 ± 3.7 | LUSB (longest uninterrupted sleep bout) (male Wistar rats; 1 mg/kg oral): 4.1 ± 1.6 min; LUSB (longest uninterrupted sleep bout) (male Wistar rats; 3 mg/kg oral): 17 ± 4.4 min
Cc1ccc2c(c1)C(N1CCN(CC(C)(C)C(=O)O)CC1)=Nc1cc(Br)ccc1O2 [Compound 50] | 3.4 ± 2.6 | 
COc1ccc2c(c1)C(N1CCN(CC(C)(C)C(=O)O)CC1)=Nc1cc(Br)ccc1O2 [Compound 51] | 10.1 ± 3.6 | 
Cc1ccc2c(c1)N=C(N1CCN(CC(C)(C)C(=O)O)CC1)c1ccc(C)cc1O2 [Compound 52] | 15.9 ± 2.3 | 
COc1ccc2c(c1)C(N1CCN(CC(C)(C)C(=O)O)CC1)=Nc1cc(C)ccc1O2 [Compound 54] | 11.1 ± 2.9 | 
COc1ccc2c(c1)N=C(N1CCN(CC(C)(C)C(=O)O)CC1)c1cc(C)ccc1O2 [Compound 56] | 11.7 ± 2.3 | 
CN(C)CCCSC(=N)N [dimaprit] |  | Ki (H1 histamine receptor): > 110 µM
